Measured values: patent US20210299079A1, “MONOMETHYL FUMARATE-CARRIER CONJUGATES AND METHODS OF THEIR USE” (Flagship Pioneering Innovations V, Inc., priority 2018, published 2021)
Counter-ions that a name gives are not always drawn. Blank lines part the entries; values can stand above or below the molecule they belong to.

Columns and labels:
[1] = Stability of conjugates in Simulated Gastric Fluid (SGF); assay type: in vitro ADME; settings: SGF pH 1.6 with pepsin, 37° C., 1 μM compound
Summary of the method: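 Compound at 1 μM (from 1 mM DMSO stock) in pH 1.6 NaCl medium with FaSSIF powder and 0.1 mg/mL pepsin, mixed at 37° C. Aliquots quenched with equal volume acetonitrile at T0 and regular intervals; LC/MS gives degradation rate.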

[2] = In vitro Colonic Material Stability Assay; assay type: in vitro ADME; settings: colonic material slurry in YCFAC media, anaerobic, 1 or 10 μM
Procedure: Assay 3. In vitro Colonic Material Stability Assay. This assay was used to assess the stability of a conjugate in a large intestine. All experiments were performed in an anaerobic chamber containing 90% nitrogen, 5% hydrogen and 5% carbon dioxide. Colonic material was resuspended as a slurry (15% w/v final concentration) in pre-reduced, anaerobically sterilized dilution blanks (Anaerobe Systems AS-908). The colonic material was then inoculated into 96 well plates containing YCFAC media (Anaerobe Systems AS-680) or other suitable media (6.7 μL slurry into 1 mL total media). Compounds or groups of compounds were added to each individual well to reach a final analyte concentration of 1 or 10 μM, and the material was mixed by pipetting. Sample was removed after set timepoints (0, 120, 240, 480, 1440, 2880 minutes after initiation of the assay), quenched with acetonitrile containing internal standard, and analyzed by LC/MS.

[3] = tested on: experimental autoimmune encephalomyelitis (EAE); test: In Vivo EAE Model of Multiple Sclerosis; parameters: species or system C57BL/6J mice; settings: Study 2, oral, amount approximately equimolar to 100 mg/kg DMF, 28 days
Procedure: For experimental autoimmune encephalomyelitis (EAE) study, 8- to 11-week-old C57BL/6J mice were anesthetized and subcutaneously injected with […] and […]. Pertussis toxin (200 ng/mouse) was applied i.p. on days 0. Daily clinical evaluation was performed via a 5-point scale, and the clinical progression was observed over 28 days (FIG. 2A). […] At the end of the study, flow cytometry analysis was performed on the spleen (n=8 per group). […] Statistical analysis was performed with GraphPad Prism (GraphPad Software). Unpaired t test was used to assess significance between the control (Vehicle) and each treatment group. For experimental autoimmune encephalomyelitis (EAE) studies, 8- to 11-week old C57BL/6J mice were anesthetized and subcutaneously injected with […] and […]. Pertussis toxin (200 ng/mouse) was applied intraperitoneally on day 0. Daily clinical evaluation as performed using a 5-point scale and the clinical progression was observed over 28 days (FIGS. 2C and 2D).

[4] = Stability of conjugates in Simulated Intestinal Fluid (SIF); assay type: in vitro ADME; settings: SIF pH 6.7 with pancreatin, 37° C., 1 μM compound
Summary of the method: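 Compounds at 1 μM in fresh simulated intestinal fluid: FaSSIF powder in pH 6.7 phosphate buffer with pancreatin. Agitated at 37 °C; aliquots taken at T0 and regular intervals, quenched with 1 volume acetonitrile. Degradation rates determined by LC/MS.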

[5] = Gastrointestinal (GI) Exposure to Propionate (Study 1); assay type: in vivo, CD-1 mice; settings: mouse; for Propionate-d3 AUClast / Propionate-d3 Tmax: single oral dose: Propionate-d3 62 mg/kg, Compound 3-d12 110 mg/kg, Compound 6-d9 91 mg/kg
Procedure: (§1) In order to measure propionate concentrations along the GI track, CD-1 mice were orally administered a single dose of deuterated sodium propionate, Compound 3 comprising deuterated propionate, or Compound 6 comprising deuterated propionate (Propionate-d3, Compound 3-d12, and Compound 6-d9, respectively; suspension, 1% (w/v) methyl cellulose in deionized water). The amounts of compound dosed were normalized to provide approximately equimolar amounts of […] (Propionate-d3 at 62 mg/kg, Compound 3-d12 at 110 mg/kg, and Compound 6-d9 at 91 mg/kg). […] Blood samples were collected in K2EDTA tubes and stored on wet ice no more than 30 min and then further processed to plasma. GI samples were placed into separate labeled, pre-weighted collection tubes and frozen before analysis. Brain samples were homogenized prior to analysis. Samples were subsequently worked up and analyzed by LC-MS/MS for deuterated propionate concentration. Propionate concentrations versus time for different tissues are depicted in FIGS. 4A-4H and 5A-5C.

[6] = Gastrointestinal (GI) Exposure to Monomethylfumarate (MMF) (Study 2); assay type: in vivo, CD-1 mice; settings: mouse, samples of Study 1, single oral dose
Procedure: as §1
Samples from Example 6, Study 1 were also analyzed by LC-MS/MS for monomethylfumarate concentrations. MMF concentrations versus time for different tissues are depicted in FIGS. 6A-6F.

[7] = tested on: IL-8; test: Neutrophil Chemokine Production Assay: IL-8; assay type: cell-based; settings: human neutrophils, 12 h
Procedure: (§2) A volume 25 mL of human blood was layered over 15 mL of Histopaque®-1077 and centrifuged at 500 g, R^T, for 30 min with no break applied to the centrifuge. The PBMC band and Histopaque®-1077 layer were removed leaving behind the bottom red layer which was mixed with 40 mL of 1× red blood cell (RBC) lysis buffer (Sigma-Aldrich) was and split into two 50 mL tubes. The volume for both fractions was brought to 50 mL with RBC lysis buffer, mixed by inversion, and then incubated at RT for 10 min. Solutions were centrifuged at 250 g, for 10 min at RT and the supernatant liquids removed. The reddish pellets were re-suspended in 1 mL of RBC lysis buffer and combined. The cell suspension was incubated for 5 min at RT in RBC lysis buffer. After incubation 45 mL of Hanks Balanced Salt Solution with no calcium, magnesium or phenol red (HBSS—) was added, the cell suspension was spun (250 g for 10 min at RT), and supernatant liquids were removed. The white pellet was re-suspended in 1 mL of HBSS—, and cell counts were determined. The neutrophil cell suspension was brought to a concentration of 1.11e6 cells/mL in RPMI complete (Sigma-Aldrich), and 180 μL of cell suspension was transferred to all wells within a sterile 96-well tissue culture treated plate resulting in 2.0×10^5 cells/well. […] After incubation, 10 μL of 2 μg/mL LPS solution in RPMI complete was added to each well except for control wells, which received an additional 10 μL of media. Cells were incubated for 12 h (37° C., 5% CO2), after which plates were centrifuged at 250 g, RT, for 5 min and supernatant liquids were obtained and stored at −80° C. until analyzed via Luminex® Multiplex Assay for various chemokines and cytokines. Three data points were acquired from two different blood donors and averaged.

[8] = tested on: MIP-1α; test: Neutrophil Chemokine Production Assay: MIP-1α; assay type: cell-based; settings: human neutrophils, 12 h
Procedure: as §2

[9] = tested on: MIP-1β; test: Neutrophil Chemokine Production Assay: MIP-1β; assay type: cell-based; settings: human neutrophils, 12 h
Procedure: as §2

Compound: CCC(=O)O[C@H]1[C@H](OC(=O)CC)[C@H](OC(=O)/C=C/C(=O)OC)O[C@@H](C)[C@H]1OC(=O)CC [Compound 1, Methyl ((2S,3S,4R,5R,6S)-6-methyl-3,4,5-tris(propionyloxy)tetrahydro-2H-pyran-2-yl) fumarate]
- Assay 1 (SGF) (% Remaining @ 1 hour) [1]: C (C: >75% of the tested compound remaining)
- Assay 3 (% Remaining at 24 h) [2]: C (C: >75% of the tested compound remaining)
- EAE score (5-point scale) compared to control (vehicle only) [3]: lower EAE scores

Compound: CCC(=O)OC[C@H]1O[C@@H](OC(=O)/C=C/C(=O)OC)[C@H](OC(=O)CC)[C@@H](OC(=O)CC)[C@@H]1OC(=O)CC [Compound 3, Methyl ((2S,3R,4S,5R,6R)-3,4,5-tris(propionyloxy)-6-((propionyloxy)methyl)tetrahydro-2H-pyran-2-yl) fumarate]
- Assay 1 (SGF) (% Remaining @ 1 hour) [1]: C (C: >75% of the tested compound remaining)
- Assay 2 (SIF) (% @ Remaining 4 hours) [4]: B (B: 25-75% of the tested compound remaining)
- Assay 3 (% Remaining at 24 h) [2]: C (C: >75% of the tested compound remaining)
- EAE score (5-point scale) compared to control (vehicle only) [3]: lower EAE scores
- EAE score (5-point scale) compared to mice treated with dimethyl fumarate [3]: lower or similar EAE scores

- Propionate-d3 AUClast ([5]; Brain): 1.18 nmol·h/g
- Propionate-d3 Tmax ([5]; Brain): 0.25 h
- Propionate-d3 AUClast ([5]; Cecum): 4010 nmol·h/g
- Propionate-d3 Tmax ([5]; Cecum): 2.00 h
- Propionate-d3 AUClast ([5]; Distal Colon): 2310 nmol·h/g
- Propionate-d3 Tmax ([5]; Distal Colon): 4.00 h
- Propionate-d3 AUClast ([5]; Distal Intestine): 3880 nmol·h/g
- Propionate-d3 Tmax ([5]; Distal Intestine): 1.00 h
- Propionate-d3 AUClast ([5]; Proximal Colon): 2910 nmol·h/g
- Propionate-d3 Tmax ([5]; Proximal Colon): 2.00 h
- Propionate-d3 AUClast ([5]; Proximal Intestine): 3160 nmol·h/g
- Propionate-d3 Tmax ([5]; Proximal Intestine): 0.25 h
- Propionate-d3 AUClast ([5]; Stomach): 4950 nmol·h/g
- Propionate-d3 Tmax ([5]; Stomach): 1.00 h
- region where the highest concentrations (Cmax) of propionate-d3 were observed ([5]; single oral dose, GI tissues): intestines (proximal and distal)
- MMF AUClast ([6]; Cecum): 297 nmol·h/g
- MMF Tmax ([6]; Cecum): 2.00 h
- MMF AUClast ([6]; Distal Colon): 568 nmol·h/g
- MMF Tmax ([6]; Distal Colon): 4.00 h
- MMF AUClast ([6]; Distal Intestine): 156 nmol·h/g
- MMF Tmax ([6]; Distal Intestine): 1.00 h
- MMF AUClast ([6]; Proximal Colon): 465 nmol·h/g
- MMF Tmax ([6]; Proximal Colon): 2.00 h
- MMF AUClast ([6]; Proximal Intestine): 56.4 nmol·h/g
- MMF Tmax ([6]; Proximal Intestine): 0.50 h
- MMF AUClast ([6]; Stomach): 3180 nmol·h/g
- MMF Tmax ([6]; Stomach): 1.00 h
Compound: [2H]C([2H])([2H])CC(=O)OCC1OC(OC(=O)C=CC(=O)OC)C(OC(=O)CC([2H])([2H])[2H])C(OC(=O)CC([2H])([2H])[2H])C1OC(=O)CC([2H])([2H])[2H] (stereo not shown) [Compound 3-d12]

Compound: CCCC(=O)O[C@@H]1[C@@H](OC(=O)CCC)[C@H](C)O[C@@H](OC(=O)/C=C/C(=O)OC)[C@@H]1OC(=O)CCC [Compound 15, Methyl ((2S,3R,4R,5S,6S)-3,4,5-tris(butyryloxy)-6-methyltetrahydro-2H-pyran-2-yl) fumarate]
- Assay 1 (SGF) (% Remaining @ 1 hour) [1]: B (B: 25-75% of the tested compound remaining)
- Assay 2 (SIF) (% @ Remaining 4 hours) [4]: A (A: <25% of the tested compound remaining)
- Assay 3 (% Remaining at 24 h) [2]: C (C: >75% of the tested compound remaining)
- EAE score (5-point scale) compared to control (vehicle only) [3]: lower EAE scores

Compound: CCC(=O)O[C@@H]1[C@@H](OC(=O)CC)[C@H](OC(=O)/C=C/C(=O)OC)OC[C@H]1OC(=O)CC [Compound 20, Methyl ((2S,3R,4S,5R)-3,4,5-tris(propionyloxy)tetrahydro-2H-pyran-2-yl) fumarate]
- Assay 1 (SGF) (% Remaining @ 1 hour) [1]: C (C: >75% of the tested compound remaining)
- Assay 2 (SIF) (% @ Remaining 4 hours) [4]: A (A: <25% of the tested compound remaining)
- Assay 3 (% Remaining at 24 h) [2]: C (C: >75% of the tested compound remaining)
- EAE score (5-point scale) compared to control (vehicle only) [3]: lower EAE scores

Compound: CCCC(=O)O[C@H]1[C@H](OC(=O)/C=C/C(=O)OC)OC[C@@H](OC(=O)CCC)[C@H]1OC(=O)CCC [Compound 24, Methyl ((2S,3R,4R,5R)-3,4,5-tris(butyryloxy)tetrahydro-2H-pyran-2-yl) fumarate]
- Assay 1 (SGF) (% Remaining @ 1 hour) [1]: C (C: >75% of the tested compound remaining)
- Assay 2 (SIF) (% @ Remaining 4 hours) [4]: A (A: <25% of the tested compound remaining)
- EAE score (5-point scale) compared to control (vehicle only) [3]: lower EAE scores

Compound: CC(O)CC(=O)O (stereo not drawn) [β-hydroxybutyric acid]
- % IL-8 (Vehicle + LPS = 100%) ([7]; Conc. 200.0 μM): − (− = >90% Vehicle)
- % IL-8 (Vehicle + LPS = 100%) ([7]; Conc. 2000.0 μM): + (+ = <90% Vehicle)
- % MIP-1α (Vehicle + LPS = 100%) ([8]; Conc. 200.0 μM): − (− = >90% Vehicle)
- % MIP-1α (Vehicle + LPS = 100%) ([8]; Conc. 2000.0 μM): ++ (++ = <70% Vehicle)
- % MIP-1β (DMSO + LPS = 100%) ([9]; Conc. 200.0 μM): + (+ = <90% Vehicle)
- % MIP-1β (DMSO + LPS = 100%) ([9]; Conc. 2000.0 μM): + (+ = <90% Vehicle)
